Positions of bridges follow the written chain, without caps; N, C: chain ends. Residues, ends and D or L forms follow the SMILES beside them.
Columns and labels:
hVEGF(8-109) = target: T1, hVEGF(8-109) (Homo sapiens, UniProt P15692); assay: Spot phage ELISA; format: binding
T1 construct: hVEGF(8-109) or BSA were coated on 384-well MAXISORP™ immunoplates
T1 sequence (P15692 214-315): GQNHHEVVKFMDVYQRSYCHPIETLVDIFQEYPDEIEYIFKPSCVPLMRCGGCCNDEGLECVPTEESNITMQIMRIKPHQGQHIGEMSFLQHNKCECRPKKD
Procedure, shortened: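 After four selection rounds, phage supernatants from single clones (1:3 in PBT) were added to wells coated with hVEGF(8-109) or BSA; binding detected with anti-M13-HRP and TMB. Positive clones had target signal more than 3 times BSA background.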

hVEGF-A (8-109) = target: T2, hVEGF-A (8-109) (Homo sapiens, UniProt P15692); assay: SPR binding assay (BIACORE 3000, 37° C.)
T2 sequence (P15692 34-135 isoform P15692-4): T1 sequence (P15692 214-315)
Procedure, shortened: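 VEGF-A, biotinylated and captured on streptavidin sensor or amine-coupled to CM5 at pH 5.0, to about 400 RU. Peptide concentration series in HBS-EP with 0.1% DMSO injected at […]; kinetics and affinities from 1:1 binding model fits.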

VEGF mouse 164 = target: T3, VEGF mouse 164 (Mus musculus, UniProt Q00731); assay: SPR binding assay; details: for ka / kd: mouse 164, Table 30
T3 sequence (Q00731 27-190 isoform Q00731-2): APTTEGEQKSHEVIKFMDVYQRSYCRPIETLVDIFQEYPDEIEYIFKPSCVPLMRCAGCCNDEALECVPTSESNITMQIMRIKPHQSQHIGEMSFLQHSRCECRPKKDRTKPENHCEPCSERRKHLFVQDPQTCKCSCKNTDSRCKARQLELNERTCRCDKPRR
Experimental: (§1) Depending on the format of the assay either a streptavidin sensor (SA) or a dextran-coated (CM5) sensor was utilized as described below.
(§2) For use with the SA sensor, VEGF-A was first biotinylated (no more than 2 biotin/VEGF-A) by incubating the protein with EZ-link NHS-PEG4-Biotin (Pierce) in a 1:1.5 molar ratio respectively, in PBS for 2 hours on ice. Reaction was then quenched by addition of 10 molar excess of Glycine pH 8.0 and the sample was buffer exchanged into PBS using an Amicon 0.5 mL 3000 MWCO ultra-centrifugal filters (EMD Millipore). The biotinylation state of the protein was verified by LC-MS analysis. Biotinylated VEGF-A was then captured on the surface until a resonance unit (RU) signal of about ˜400. For immobilization of VEGF-A on CM5 sensor, the surface was first activated with a mixture of N-ethyl-N′-(3-dimethylaminopropyl)carbodiimide hydrochloride and N-hydroxysuccinimide (EDC/NHS) according to the supplier instructions. VEGF-A was then diluted into coupling buffer (0.1 M Acetate Buffer, pH 5.0) and injected until the signal reached about ˜400 RU followed by a wash with 1 M ethanolamine pH 8.0 to quench remaining activated sites.
(§3) Following the capture step, a series of the peptide concentrations were prepared in HBS-EP buffer with matching DMSO concentrations to 0.1% and injected at a flow rate of […]. The resulting sensorgrams were then analyzed using a 1:1 binding model to obtain kinetic data and affinities using Scrubber 2.0 (BioLogic Software).

rat VEGF-A = target: T4, rat VEGF-A (Rattus norvegicus, UniProt P16612); assay: SPR binding assay; details: for ka / kd: rat, Table 30
T4 sequence (P16612 27-139 limits assumed): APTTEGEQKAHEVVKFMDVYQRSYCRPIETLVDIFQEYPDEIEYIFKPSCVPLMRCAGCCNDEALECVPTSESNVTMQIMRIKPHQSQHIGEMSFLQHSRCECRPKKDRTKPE
Experimental: as §1, §2, §3

[1] = target: hVEGF-A mutants (Y21A, K48A, Q89A, F17A/M81A); assay: SPR binding assay, hVEGF-A mutants; design: species or system human; kd: unit not given here
Experimental: as §1, §2, §3
The binding interface of VEGF_CKP9.54.90 on VEGF-A overlaps with that of the natural receptors and G6.31 antibody (FIGS. 7 and 8). […] However, K48A mutation enhanced the binding of VEGF_CKP9.54.90 by ˜2-3 fold, a behavior that is similar to that observed with the G6.31 antibody (Fuh et al. (2006) J. Biol. Chem. 281, 6625-6631).

trypsin = assay: Trypsin protease activity, peptide substrate cleavage assay; format: biochemical; details: FIG. 3
VEGF-A and KDR = target: T5, VEGF-A and KDR (Homo sapiens, UniProt P15692); assay: Competition ELISA, KDR-VEGF interaction; format: binding
T5 sequence (P15692 207-395): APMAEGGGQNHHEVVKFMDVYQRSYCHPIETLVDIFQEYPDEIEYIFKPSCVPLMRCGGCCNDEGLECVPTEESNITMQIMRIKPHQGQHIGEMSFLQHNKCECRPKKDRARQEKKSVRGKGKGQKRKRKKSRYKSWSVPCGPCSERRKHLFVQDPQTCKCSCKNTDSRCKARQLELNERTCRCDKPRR
Experimental: Binding specificity of each peptide was established by competition ELISA. […] After blocking with block buffer (PBS with 0.5% BSA and 0.05% TWEEN®20) for 2 hours at room temperature, the receptor-Fc fusions or biotinylated receptors were serially diluted using assay buffer (PBS with 0.5% BSA and 0.05% TWEEN®20) and incubated for 1 hour at room temperature. […] Competition ELISA was conducted in an identical fashion as described above except after blocking, a mixture of serially diluted peptide containing a constant concentration of receptor-Fc fusion or biotinylated receptor (concentration of receptor was set to EC60) was added and incubated for 1 hour. All recombinant human proteins and antibodies were purchased from R &D Systems (Minneapolis, Minn.).

[2] = VEGF_CKP9 Loop1/Loop5 affinity-matured variants, Table 24

SMILES | kd (hVEGF-A (8-109); hVEGF-A (8-109), Table 29) | kd (hVEGF-A (8-109); hVEGF-A WT) | kd (hVEGF-A (8-109); human 8-109, Table 30) | ka (VEGF mouse 164) | kd (VEGF mouse 164) | ka (rat VEGF-A) | kd (rat VEGF-A) | Kd ([1]; hVEGF-A mutant K48A) | ka ([1]; hVEGF-A mutant K48A) | kd ([1]; hVEGF-A mutant K48A) | Kd ([1]; hVEGF-A mutant Q89A) | ka ([1]; hVEGF-A mutant Q89A) | kd ([1]; hVEGF-A mutant Q89A) | Kd ([1]; hVEGF-A mutant Y21A) | ka ([1]; hVEGF-A mutant Y21A) | kd ([1]; hVEGF-A mutant Y21A) | inhibition of trypsin protease activity (trypsin) | S/N (signal to noise ratio as compared to BSA control) (hVEGF(8-109); Table 24) | ELISA (hVEGF(8-109); [2]) | IC50 (VEGF-A and KDR) | further results
CC[C@H](C)[C@@H]1NC(=O)[C@H](CC(=O)O)NC(=O)[C@@H]2CCCN2C(=O)CNC(=O)[C@@H]2CSSC[C@H](NC(=O)[C@H](CC(=O)O)NC1=O)C(=O)N[C@@H](CC(C)C)C(=O)N[C@@H](C)C(=O)NCC(=O)N[C@H](C(=O)N[C@H](C(=O)N[C@H]1CSSC[C@@H](C(=O)NCC(=O)O)NC(=O)[C@H](CO)NC(=O)[C@H](CC(N)=O)NC(=O)[C@H](Cc3ccc(O)cc3)NC(=O)[C@H](Cc3c[nH]c4ccccc34)NC(=O)[C@H](Cc3c[nH]cn3)NC1=O)C(C)C)CSSC[C@H](NC(=O)CN)C(=O)N[C@@H](CC(=O)O)C(=O)N[C@@H](C(C)C)C(=O)N[C@@H](CCSC)C(=O)N[C@@H](CCC(N)=O)C(=O)N1CCC[C@H]1C(=O)N[C@@H](Cc1ccc(O)cc1)C(=O)N[C@@H](Cc1c[nH]c3ccccc13)C(=O)NCC(=O)N2 [VEGF_CKP9.63.12] (H-GCDVMQPYWGCGPDIDCLAGCVCHWYNSCG-OH; disulfide 2-21, 11-17, 23-29 (inferred); N-terminus and C-terminus assumed) | 0.10 | 0.0096 | 2.50 × 10^−2 | 1.04 × 10^6 | 1.32 × 10^−2 | 6.44 × 10^6 | 2.59 × 10^−2 | 0.33 nM | 5.30 × 10^7 | 0.017 | 36.5 nM | 7.43 × 10^6 | 0.47 | 9.84 nM | 1.99 × 10^7 | 1.48 × 10^−1 | do not inhibit |  |  |  | S/N (signal to noise ratio as compared to BSA control) (hVEGF(8-109); Table 27): 39.9; ELISA (hVEGF(8-109); loop 2 variants based on VEGF_CKP9.63 framework, Table 27): 2.6
CC[C@H](C)[C@@H]1NC(=O)[C@H](CC(N)=O)NC(=O)[C@@H](NC(=O)CN)CSSC[C@@H](C(=O)N[C@H](C(=O)N[C@H]2CSSC[C@@H](C(=O)NCC(=O)O)NC(=O)[C@H](CO)NC(=O)[C@H](CCC(N)=O)NC(=O)[C@H](Cc3ccc(O)cc3)NC(=O)[C@H](Cc3ccc(O)cc3)NC(=O)[C@H](CCC(N)=O)NC2=O)C(C)C)NC(=O)CNC(=O)[C@H](C)NC(=O)[C@H](CC(C)C)NC(=O)[C@@H]2CSSC[C@H](NC(=O)CNC(=O)[C@H](Cc3c[nH]c4ccccc34)NC(=O)[C@H](Cc3ccccc3)NC(=O)[C@@H]3CCCN3C(=O)[C@H](CC(C)C)NC(=O)[C@H](CCSC)NC1=O)C(=O)N[C@@H](CCCCN)C(=O)N[C@@H](CCC(N)=O)C(=O)N[C@@H](CC(=O)O)C(=O)N[C@@H](CO)C(=O)N[C@@H](CC(=O)O)C(=O)N2 [VEGF_CKP9.54] (H-GCNIMLPFWGCKQDSDCLAGCVCQYYQSCG-OH; disulfide 2-21, 11-17, 23-29 (inferred); N-terminus and C-terminus assumed) |  | 0.2349 | 2.18 × 10^−1 | 8.26 × 10^5 | 2.07 × 10^−1 | 1.93 × 10^6 | 2.96 × 10^−1 | 22 nM | 2.64 × 10^6 | 0.0587 | 1880 nM | 3.37 × 10^5 | 0.7932 | 317 nM | 6.63 × 10^5 | 0.2101 | do not inhibit | 28.4 | 2.1 | 5.8 nM | Kd (hVEGF-A (8-109); KD (nM), hVEGF-A WT): 55 nM; Kd (hVEGF-A (8-109); KD (nM), human 8-109, Table 30): 176 nM; Kd (hVEGF-A (8-109); KD, Table 37, surface plasmon resonance, VEGF-A): 44 ± 6 nM; kd (hVEGF-A (8-109); Table 37, surface plasmon resonance, VEGF-A): 2.3; Kd (VEGF mouse 164): 250 nM; Kd (rat VEGF-A): 176 nM
CSCC[C@@H]1NC(=O)[C@H](C(C)C)NC(=O)[C@H](CC(=O)O)NC(=O)[C@@H](NC(=O)CN)CSSC[C@@H](C(=O)N[C@H](C(=O)N[C@H]2CSSC[C@@H](C(=O)NCC(=O)O)NC(=O)[C@H](CO)NC(=O)[C@H](CC(N)=O)NC(=O)[C@H](Cc3ccc(O)cc3)NC(=O)[C@H](Cc3c[nH]c4ccccc34)NC(=O)[C@H](Cc3c[nH]cn3)NC2=O)C(C)C)NC(=O)CNC(=O)[C@H](C)NC(=O)[C@H](CC(C)C)NC(=O)[C@@H]2CSSC[C@H](NC(=O)CNC(=O)[C@H](Cc3c[nH]c4ccccc34)NC(=O)[C@H](Cc3ccc(O)cc3)NC(=O)[C@@H]3CCCN3C(=O)[C@H](CCC(N)=O)NC1=O)C(=O)N[C@@H](CCCCN)C(=O)N[C@@H](CCC(N)=O)C(=O)N[C@@H](CC(=O)O)C(=O)N[C@@H](CO)C(=O)N[C@@H](CC(=O)O)C(=O)N2 [VEGF_CKP9.63] (H-GCDVMQPYWGCKQDSDCLAGCVCHWYNSCG-OH; disulfide 2-21, 11-17, 23-29 (inferred); N-terminus and C-terminus assumed) | 1.6 | 0.1624 | 1.81 × 10^−1 | 5.57 × 10^5 | 1.60 × 10^−1 | 4.56 × 10^5 | 2.46 × 10^−1 | 28.4 nM | 5.72 × 10^5 | 0.02 | 2000 nM | 2.66 × 10^5 | 0.51 | 585 nM | 7.52 × 10^5 | 0.4814 |  | 29.7 | 2.0 | 10.8 nM | Kd (hVEGF-A (8-109); KD (nM), hVEGF-A WT): 100 nM; Kd (hVEGF-A (8-109); KD (nM), human 8-109, Table 30): 281 nM; Kd (hVEGF-A (8-109); KD, hVEGF-A (8-109), Table 29): 100 nM; ka (hVEGF-A (8-109); human 8-109, Table 30): 6.62 × 10^5; Kd (VEGF mouse 164): 289 nM; Kd (rat VEGF-A): 524 nM

Reference: patent US11155586B2, “Cystine knot scaffold platform” (Genentech, Inc., priority 2015, dated 2021)
